Assay results as given in article PMC6321543, “Cloning, Characterization and Anion Inhibition Studies of a β-Carbonic Anhydrase from the Pathogenic Protozoan Entamoeba histolytica” (Molecules, 2018).

What follows are compounds tested against T1, EhiCA (Entamoeba histolytica, UniProt C4LXK3) (assay: biochemical). Conditions: not given.
T1 construct: gene EHI_073380; His-tag cleaved with thrombin; 21 kDa (21/25 kDa doublet); one Zn per chain; Zn ligands Cys50, His103, Cys106, dyad Asp52-Arg54; dimer and trimer seen on SDS-PAGE
T1 sequence (C4LXK3 1-188): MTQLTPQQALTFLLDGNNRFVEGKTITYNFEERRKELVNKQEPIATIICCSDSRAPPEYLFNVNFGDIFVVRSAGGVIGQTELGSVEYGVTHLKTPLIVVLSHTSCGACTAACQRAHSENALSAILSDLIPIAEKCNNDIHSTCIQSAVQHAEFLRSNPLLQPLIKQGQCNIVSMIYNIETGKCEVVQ

| Structure (SMILES) | Ki |
| --- | --- |
| I [I^−] | 7.4 mM |
| O=P(O)(O)OP(=O)(O)O [P2O7^4−] | > 100 mM |
| N#CS [SCN^−] | 7.9 mM |
| O=S(=O)(O)O [SO4^2−] | 21.6 mM |

Same assay, conditions: CO2 hydration, TRIS pH 8.3, 20 °C (methods: 25 °C), 0.1 M NaClO4, 15 min pre-incubation; as sodium salt; read-out: KI [mM] ^#

| Structure (SMILES) | Ki |
| --- | --- |
| F[P-](F)(F)(F)(F)F [PF6^−] | > 100 mM |

Same assay, conditions: read-out: KI [mM] ^#

| Structure (SMILES) | Ki |
| --- | --- |
| F[B-](F)(F)F [BF4^−] | > 100 mM |
| Br [Br^−] | 36.8 mM |
| O=S(=O)(O)C(F)(F)F [CF3SO3^−] | > 100 mM |
| N#CO [CNO^−] | 0.77 mM |
| S=C(S)S [CS3^2−] | 6 mM |
| [O-][Cl+3]([O-])([O-])O [ClO4^−] | > 100 mM |
| Cl [Cl^−] | > 100 mM |
| CCN(CC)C(=S)S [Et2NCS2^−] | 0.51 mM |
| O=S(=O)(O)F [FSO3^−] | 0.086 mM |
| F [F^−] | > 100 mM |
| NS(N)(=O)=O [H2NSO2NH2] | 0.028 mM |
| NS(=O)(=O)O [H2NSO3H] | > 100 mM |
| O=S(O)O [HSO3^−] | 11.5 mM |
| S [HS^−] | 6.9 mM |
| O=S(=O)(O)NS(=O)(=O)O [NH(SO3)2^2−] | 2.2 mM |
| O=NO [NO2^−] | 1.7 mM |
| O=[N+]([O-])O [NO3^−] | 3.6 mM |
| OB(O)c1ccccc1 [Ph-B(OH)2] | 0.047 mM |
| [O]=[Re](=[O])(=[O])[OH] [ReO4^−] | 7.1 mM |
| [O]=[Ru](=[O])(=[O])[OH] [RuO4^−] | 7 mM |
| O=S(=O)(O)OOS(=O)(=O)O [S2O8^2−] | 8.4 mM |
| N#C[SeH] [SeCN^−] | 0.87 mM |
| O=[Se](=O)(O)O [SeO4^2−] | 6 mM |
| O=[Te](=O)(O)O [TeO4^2−] | 0.61 mM |
| [O]=[V]([OH])([OH])[O][V](=[O])([OH])[OH] [V2O7^4−] | > 100 mM |
